Results: patent US8802597B2, “Herbicidal pyrimidines” (E I du Pont de Nemours and Company, priority 2003, dated 2014)

Assays:
Assay in all cases: Test C pre/postemergence
Type in all cases: in vivo
[1] = test system: Surinam grass (Brachiaria decumbens); settings: Preemergence, scale 0 to 100, 0 no effect, 100 complete control
How it was run: (§1)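 Injury scored visually 12–14 days after application on 0–100 scale (100 = complete control), relative to controls. Compounds, formulated with surfactant in non-phytotoxic solvent, applied to soil at planting (pre) or to 1- to 4-leaf plants 2–18 cm tall (post) in greenhouse.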

[2] = test system: bermudagrass (Cynodon dactylon); settings: Preemergence
How it was run: as §1

[3] = test system: common ragweed (Ambrosia elatior); settings: Preemergence, scale 0 to 100, 0 no effect, 100 complete control
How it was run: as §1

[4] = test system: eastern black nightshade (Solanum ptycanthum); settings: Preemergence, scale 0 to 100, 0 no effect, 100 complete control
How it was run: as §1

[5] = test system: giant foxtail (Setaria faberii); settings: Preemergence
How it was run: as §1

[6] = test system: goosegrass (Eleusine indica); settings: Preemergence
How it was run: as §1

[7] = test system: lambsquarters (Chenopodium album); settings: Preemergence
How it was run: as §1

[8] = test system: morningglory (Ipomoea coccinea); settings: Preemergence
How it was run: as §1

soybean (Glycine max) = settings: Preemergence, scale 0 to 100, 0 no effect, 100 complete control
How it was run: as §1

[9] = test system: velvetleaf (Abutilon theophrasti); settings: Preemergence, scale 0 to 100, 0 no effect, 100 complete control
How it was run: as §1

[10] = test system: woolly cupgrass (Eriochloa villosa); settings: Preemergence
How it was run: as §1

[11] = test system: yellow nutsedge (Cyperus esculentus); settings: Preemergence, scale 0 to 100, 0 no effect, 100 complete control
How it was run: as §1

[12] = 16 g ai/ha, scale 0 to 100, 0 no effect, 100 complete control
[13] = 31 g ai/ha, scale 0 to 100, 0 no effect, 100 complete control

## Nc1nc(C2CC2)nc(C(=O)[O-])c1Cl.[Na+] [Compound 77, 6-amino-5-chloro-2-cyclopropyl-4-pyrimidinecarboxylic acid monosodium salt]
[1]; 16 g ai/ha
  Plant response rating, Surinam Grass: 0
[1]; Urochloa decumbens, pre-emergence, 31 g ai/ha, read-out: Plant response rating, Surinam Grass
  pest or weed control at 31 g/ha: 0%
[1]; Urochloa decumbens, pre-emergence, 62 g ai/ha, read-out: Plant response rating, Surinam Grass
  pest or weed control at 62 g/ha: 0%
[2]; Cynodon dactylon, pre-emergence, 31 g ai/ha, scale 0 to 100, 0 no effect, 100 complete control, read-out: Plant response rating, Bermudagrass
  pest or weed control at 31 g/ha: 0%
[2]; Cynodon dactylon, pre-emergence, 62 g ai/ha, scale 0 to 100, 0 no effect, 100 complete control, read-out: Plant response rating, Bermudagrass
  pest or weed control at 62 g/ha: 0%
[2]; Cynodon dactylon, pre-emergence, 125 g ai/ha, scale 0 to 100, read-out: Plant response rating, Bermudagrass
  pest or weed control at 125 g/ha: 0%
[2]; [12]
  Plant response rating, Bermudagrass: 0
[3]; Ambrosia artemisiifolia, pre-emergence, 31 g ai/ha, read-out: Plant response rating, Ragweed
  pest or weed control at 31 g/ha: 0%
[3]; Ambrosia artemisiifolia, pre-emergence, 62 g ai/ha, read-out: Plant response rating, Ragweed
  pest or weed control at 62 g/ha: 50%
[3]; 16 g ai/ha
  Plant response rating, Ragweed: 0
[4]; 16 g ai/ha
  Plant response rating, Nightshade: 0
[4]; 31 g ai/ha
  Plant response rating, Nightshade: 0
[4]; 62 g ai/ha
  Plant response rating, Nightshade: 0
[5]; [12]
  Plant response rating, Foxtail, Giant: 0
[5]; Setaria faberi, pre-emergence, 31 g ai/ha, scale 0 to 100, 0 no effect, 100 complete control, read-out: Plant response rating, Foxtail, Giant
  pest or weed control at 31 g/ha: 0%
[5]; Setaria faberi, pre-emergence, 62 g ai/ha, scale 0 to 100, 0 no effect, 100 complete control, read-out: Plant response rating, Foxtail, Giant
  pest or weed control at 62 g/ha: 0%
[5]; Setaria faberi, pre-emergence, 125 g ai/ha, scale 0 to 100, read-out: Plant response rating, Foxtail, Giant
  pest or weed control at 125 g/ha: 0%
[6]; Eleusine indica, pre-emergence, 31 g ai/ha, scale 0 to 100, 0 no effect, 100 complete control, read-out: Plant response rating, Goosegrass
  pest or weed control at 31 g/ha: 0%
[6]; Eleusine indica, pre-emergence, 62 g ai/ha, scale 0 to 100, 0 no effect, 100 complete control, read-out: Plant response rating, Goosegrass
  pest or weed control at 62 g/ha: 0%
[6]; [12]
  Plant response rating, Goosegrass: 0
[6]; 125 g ai/ha, scale 0 to 100
  Plant response rating, Goosegrass: 0
[7]; [12]
  Plant response rating, Lambsquarters: 0
[7]; [13]
  Plant response rating, Lambsquarters: 0
[7]; 125 g ai/ha, scale 0 to 100
  Plant response rating, Lambsquarters: 40
[8]; [12]
  Plant response rating, Morningglory: 5
[8]; [13]
  Plant response rating, Morningglory: 50
[8]; 62 g ai/ha, scale 0 to 100, 0 no effect, 100 complete control
  Plant response rating, Morningglory: 50
[8]; 125 g ai/ha, scale 0 to 100
  Plant response rating, Morningglory: 75
Soybean (Glycine max); Glycine max, pre-emergence, 31 g ai/ha, read-out: Plant response rating, Soybean
  plant injury at 31 g/ha: 100%
Soybean (Glycine max); Glycine max, pre-emergence, 62 g ai/ha, read-out: Plant response rating, Soybean
  plant injury at 62 g/ha: 100%
Soybean (Glycine max); 16 g ai/ha
  Plant response rating, Soybean: 40
[9]; Abutilon theophrasti, pre-emergence, 62 g ai/ha, read-out: Plant response rating, Velvetleaf
  pest or weed control at 62 g/ha: 85%
[9]; 16 g ai/ha
  Plant response rating, Velvetleaf: 10
[9]; 31 g ai/ha
  Plant response rating, Velvetleaf: 30
[10]; Eriochloa villosa, pre-emergence, 31 g ai/ha, scale 0 to 100, 0 no effect, 100 complete control, read-out: Plant response rating, Cupgrass, Woolly
  pest or weed control at 31 g/ha: 0%
[10]; Eriochloa villosa, pre-emergence, 62 g ai/ha, scale 0 to 100, 0 no effect, 100 complete control, read-out: Plant response rating, Cupgrass, Woolly
  pest or weed control at 62 g/ha: 0%
[10]; Eriochloa villosa, pre-emergence, 125 g ai/ha, scale 0 to 100, read-out: Plant response rating, Cupgrass, Woolly
  pest or weed control at 125 g/ha: 0%
[10]; [12]
  Plant response rating, Cupgrass, Woolly: 0
[11]; Cyperus, pre-emergence, 31 g ai/ha, read-out: Plant response rating, Nutsedge, Yellow
  pest or weed control at 31 g/ha: 0%
[11]; Cyperus, pre-emergence, 62 g ai/ha, read-out: Plant response rating, Nutsedge, Yellow
  pest or weed control at 62 g/ha: 0%
[11]; 16 g ai/ha
  Plant response rating, Nutsedge, Yellow: 0
